Reference: the NIST ThermoML archive (doi:10.1016/j.jct.2008.09.002)

Experiments:
[1] = xn = mol fraction of the nth substance listed; conditions: 101.3 kPa, Liquid, Vibrating tube method
[2] = molar heat capacity at constant pressure; xn = mol fraction of the nth substance listed; conditions: 101.3 kPa, Liquid, Small sample (50 mg) DSC
[3] = excess molar enthalpy (molar enthalpy of mixing); xn = mol fraction of the nth substance listed; conditions: 303.15 K, 101.3 kPa, Liquid, Calvet calorimetry

C[N+](=O)[O-] [nitromethane] + CCn1cc[n+](C)c1.O=S(=O)([O-])C(F)(F)F
Conditions	mass density, [1] [kg/m3]	molar heat capacity at constant pressure, [2] [J/K/mol]
293.15 K, x2 = 0.0525	1186.8	119.2
293.15 K, x2 = 0.0981	1217.2	130.6
293.15 K, x2 = 0.2013	1266.6	157
293.15 K, x2 = 0.3063	1300.5	183.7
293.15 K, x2 = 0.4027	1323.1	208.2
293.15 K, x2 = 0.4995	1340.5	233.2
293.15 K, x2 = 0.5934	1353.9	257.3
293.15 K, x2 = 0.6847	1364.4	280.5
293.15 K, x2 = 0.7698	1372.6	301.6
293.15 K, x2 = 0.8671	1380.5	326.9
298.15 K, x2 = 0.0525	1180.5	119.5
298.15 K, x2 = 0.0981	1211.2	130.9
298.15 K, x2 = 0.2013	1261.1	157.6
298.15 K, x2 = 0.3063	1295.4	184.4
298.15 K, x2 = 0.4027	1318.2	209.1
298.15 K, x2 = 0.4995	1335.7	234.3
298.15 K, x2 = 0.5934	1349.2	258.5
298.15 K, x2 = 0.6847	1359.9	281.9
298.15 K, x2 = 0.7698	1368.2	303.3
298.15 K, x2 = 0.8671	1376.2	328.8
303.15 K, x2 = 0.0525	1174.3	120
303.15 K, x2 = 0.0981	1205.3	131.4
303.15 K, x2 = 0.2013	1255.7	158.3
303.15 K, x2 = 0.3063	1290.3	185.2
303.15 K, x2 = 0.4027	1313.3	210.1
303.15 K, x2 = 0.4995	1331	235.5
303.15 K, x2 = 0.5934	1344.7	259.9
303.15 K, x2 = 0.6847	1355.4	283.3
303.15 K, x2 = 0.7698	1363.8	305
303.15 K, x2 = 0.8671	1371.9	330.7
308.15 K, x2 = 0.0525	1168	120.4
308.15 K, x2 = 0.0981	1199.3	131.8
308.15 K, x2 = 0.2013	1250.2	159.1
308.15 K, x2 = 0.3063	1285.2	186.1
308.15 K, x2 = 0.4027	1308.4	211.1
308.15 K, x2 = 0.4995	1326.3	236.7
308.15 K, x2 = 0.5934	1340.1	261.3
308.15 K, x2 = 0.6847	1351	284.8
308.15 K, x2 = 0.7698	1359.4	306.7
308.15 K, x2 = 0.8671	1367.6	332.7
313.15 K, x2 = 0.0525	1161.7	121
313.15 K, x2 = 0.0981	1193.4	132.4
313.15 K, x2 = 0.2013	1244.8	160
313.15 K, x2 = 0.3063	1280.1	187
313.15 K, x2 = 0.4027	1303.6	212.1
313.15 K, x2 = 0.4995	1321.6	238
313.15 K, x2 = 0.5934	1335.5	262.7
313.15 K, x2 = 0.6847	1346.5	286.3
313.15 K, x2 = 0.7698	1355.1	308.5
313.15 K, x2 = 0.8671	1363.4	334.7
318.15 K, x2 = 0.0525	1155.4	121.4
318.15 K, x2 = 0.0981	1187.4	132.8
318.15 K, x2 = 0.2013	1239.3	160.8
318.15 K, x2 = 0.3063	1275	188
318.15 K, x2 = 0.4027	1298.7	213
318.15 K, x2 = 0.4995	1316.9	239.2
318.15 K, x2 = 0.5934	1331	264.2
318.15 K, x2 = 0.6847	1342.1	287.8
318.15 K, x2 = 0.7698	1350.7	310.3
318.15 K, x2 = 0.8671	1359.1	336.7

[3]
Conditions	excess molar enthalpy [kcal/mol]
x2 = 0.1234	-0.0301
x2 = 0.2533	-0.0457
x2 = 0.3774	-0.0468
x2 = 0.5026	-0.048
x2 = 0.6253	-0.0399
x2 = 0.7438	-0.0299
x2 = 0.8668	-0.0139
